Test results taken from US10220046B2, “Compositions and methods for disease treatment using nanoparticle delivered compounds” (THE REGENTS OF THE UNIVERSITY OF MICHIGAN, priority 2014, dated 2019).
Non-standard residues stand in square brackets, D forms with d. No end group written: not given here.

Assays:
NCI-H295R cells [1] = experiment: Apoptosis by flow cytometry (annexin V-FITC/propidium iodide); type: cell-based, human; conditions: combination with sHDL vs. drug alone, 24 h
Description: (§1) Following treatment, cells were washed, re-suspended in annexin binding buffer and stained using annexin V-FITC/Propidium iodide as previously described (Subramanian et al., World J. Surg., 2014, 38(6): 1343-52). Induction of apoptosis was measured using the CyAn ADP Analyzer (Beckman Coulter, Inc., Indianapolis, Ind.).

SW13 cells [2] = experiment: as above; type: cell-based, human; conditions: combined with sHDL vs. drug alone, 24 h
Description: as §1

NCI-H295R cells [3] = experiment: Mitochondrial membrane potential (TMRE); type: cell-based, human; conditions: combination with sHDL vs. drug alone, 24 h
Description: (§2) SW13 and NCI-H295R were seeded in a 96 well black wall plate. Once attached, they were treated with the drugs as described above. 24 h post drug treatment, 500 nM tetramethylrhodamine, ethyl ester (TMRE) was added and the cells were incubated for 20 minutes at 37° C. and the fluorescent signal was measured after washing using a microplate reader (excitation=549, emission=575). 100 nM FCCP (carbonyl cyanide 4-(trifluoromethoxy)phenylhydrazone) was added to cells 10 minutes before the addition of TMRE as a negative control.

SW13 cells [4] = experiment: Mitochondrial membrane potential (TMRE); type: cell-based, human; conditions: combination with sHDL vs. drug alone, 24 h
Description: as §2

[5] = system: cortisol production of NCI-H295R cells; experiment: Cortisol immunoassay of culture supernatant; type: cell-based, human; conditions: 24 h
Description: The cortisol immunoassay (Alpco, Salem, N.H.) was used to quantitate cortisol levels in the culture supernatant of steroid producing NCI-H295R cells after treatment with drug combinations (same as in clonogic assay) for 24 h per the manufacturer instructions. Briefly, culture supernatant after treatment was added to the antibody coated-plates containing assay buffer (45 minutes at 25° C.). After washing, tetra methyl benzidine (TMB) substrate was incubated at RT and absorbance measured using a Synergy Neo reader (BioTek, Winooski, Vt.).

[6] = system: genes involved in steroidogenesis in NCI-H295R cells; experiment: Real time RT-PCR of genes involved in steroidogenesis; type: cell-based, human; conditions: combination with sHDL compared to monotherapy, 24 h; decreased for P and M, increased for E
Description: RNA from the NCI-H295R cells after drug treatment for 24 h was prepared using Qiagen RNA isolation kit (Qiagen Sciences, Valencia, Calif.). Approximately 500 ng of RNA was reverse transcribed using superscript RT kit from Life Technologies (Grand Island, N.Y.). qPCR was performed in a step-one RT PCR machine using the gene specific primer sets (Table 3) as published (11). Relative gene expression levels were calculated after normalization with internal control.

NCI-H295R MCAs = experiment: Three dimensional multicellular aggregate (MCA) treatment; type: cell-based, human; conditions: in combination with 50 μg/ml sHDL, 24 h
From the text: (§3) To evaluate the translational potential of the combination therapy, three-dimensional multicellular aggregates were developed to mimic the in vivo tumor model as described by Jain et al. (Jain et al., Endocrine-related cancer. 2013 June; 20(3):361-70, herein incorporated by reference in its entirety). […] Untreated, sHDL alone treated cells served as controls. The MCAs were photographed before and after treatment and the MCAs were quantified by Image J software (NIH) as described by Jain et al.

SW13 MCAs = experiment: as above; type: cell-based, human; conditions: in combination with 50 μg/ml sHDL, 24 h
From the text: as §3

LCAT = target: T1, LCAT (Homo sapiens, UniProt P04180); conditions: cited from earlier work
T1 sequence (P04180 25-440): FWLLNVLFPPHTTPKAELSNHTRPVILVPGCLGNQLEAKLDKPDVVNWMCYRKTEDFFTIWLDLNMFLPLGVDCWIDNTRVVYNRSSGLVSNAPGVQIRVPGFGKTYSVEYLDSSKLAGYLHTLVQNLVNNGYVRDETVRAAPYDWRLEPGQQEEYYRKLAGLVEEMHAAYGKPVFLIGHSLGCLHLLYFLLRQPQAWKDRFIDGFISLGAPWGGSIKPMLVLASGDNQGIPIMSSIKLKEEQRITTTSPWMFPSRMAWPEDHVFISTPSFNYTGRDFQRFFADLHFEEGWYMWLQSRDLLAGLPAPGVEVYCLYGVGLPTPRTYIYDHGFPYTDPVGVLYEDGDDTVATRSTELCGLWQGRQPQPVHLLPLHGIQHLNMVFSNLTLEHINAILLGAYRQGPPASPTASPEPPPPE

[7] = sHDL nanoparticle formation and loading with additional anticancer agents; type: physicochemical; conditions: agent in place of WGA-TA
From the text: The composition as described in Example was made with various anticancer agents in place of WGA-TA.

NCI-H295R cells [8] = experiment: Colony formation assay; type: cell-based, human; conditions: clonogenic assay, 24 h treatment, with 50 μg/ml sHDL
Description: (§4) NCI-H295R and SW13 cells were plated in 6-well plates and allowed to attach. […] The medium was changed and surviving cells allowed to grow colonies of 50 cells or more for two weeks, then washed, fixed, and stained with coomassie blue and counted. Total colony numbers were normalized to untreated controls.

SW13 cells [9] = experiment: Colony formation assay; type: cell-based, human; conditions: clonogenic assay, 24 h treatment, with 50 μg/ml sHDL
Description: as §4

SW13 and NCI-H295R cells = experiment: Cell viability assay (CellTiter-Glo) and combination index; type: cell-based, human
Description: Serial dilutions were made from the starting concentrations and viability of cells was then measured based on quantification of the ATP levels after treatment with CellTiter-Glo luminescent assay reagent as per the manufacturer's instruction (Promega, Madison, Wis.) with luminescence quantified using a BioTek Synergy Neo plate reader (BioTek, Winooski, Vt.). […] For all cell-based experiments, the experimental control group was defined, unless stated otherwise, as untreated cells or cells treated with single drug alone (when comparing to combination regimens).

[10] = system: adrenocortical carcinoma (ACC); conditions: advanced ACC patients; cited from earlier work
[11] = Metabolite analysis in mouse plasma by LC-MS/MS; type: in vivo, CD-1 white mice; conditions: IV 4 mg/kg WGA-TA in dextran formulation, 30 minutes after administration
Description: CD-1 white mice were given an IV dosage of 4 mg/kg WGA-TA in dextran formulation. Samples of blood was collected at different time points in heparin treated tubes and the plasma collected after centrifugation at 13,000 rpm for 10 min and was frozen at −80° C. for later analysis. For the evaluation of metabolites, 300 uL of ice-cold acetonitrile was added to 100 uL of the mouse plasma and then centrifuged at 4° C. in 15000 rpm for 10 minutes. The top supernatant was dried under a stream of nitrogen gas. The residue was finally reconstituted in a 100 uL solution of 20% acetonitrile (80% water). Blank plasma needed for the control was prepared from untreated CD-1 white mice blood as above. As a negative control, blank plasma spiked with WGA-TA before extraction was used. The LC-MS/MS analysis was conducted using a Shimadzu HPLC system coupled with an API 4500 mass spectrometer (Applied Biosystems, MDS Sciex Toronto, Canada), equipped with an API electrospray ionization (ESI) source. Enhanced MS, product ion-scan, and MRM scan were used as a survey scan to identify metabolites of WGA-TA. Information dependent acquisition (IDA) was used to collect fragmentation of metabolite candidates or single experiment of enhanced product ion scan was applied to acquire fragmentation of metabolites after running survey scan. […]

N.N.[Cl][Pt][Cl] [cisplatin]
increase in the percentage of apoptotic cells (early and late) (NCI-H295R cells [1]): 6.16%
increase of necrotic cell death (SW13 cells [2]): 14.71%
reduction in mitochondrial potential ΔΨ (NCI-H295R cells [3]): 13.09%
reduction in mitochondrial potential ΔΨ (SW13 cells [4]): 6.5%
decrease of cortisol production levels ([5]; drug alone vs. controls): 8.39%
decrease of cortisol production levels ([5]; in combination with sHDL): 82%
HSD3B2 level [6]: 0.1 fold change
reduction in MCAs (NCI-H295R MCAs): Approximately 20%
reduction in MCAs (SW13 MCAs): approximately 50%

PVLELFENLLERLLDALQKKLK (listed as Homo sapiens) [SEQ ID NO:2, ApoA-I agonist peptide]
LCAT activation as compared with native ApoA-I (LCAT): 86%

CC(=O)O[C@H]1C(=O)[C@@]2(C)[C@H]([C@H](OC(=O)c3ccccc3)[C@]3(O)C[C@H](OC(=O)[C@H](O)[C@@H](NC(=O)c4ccccc4)c4ccccc4)C(C)=C1C3(C)C)[C@]1(OC(C)=O)CO[C@@H]1C[C@@H]2O [paclitaxel]
nanoparticle formation and loading in sHDL [7]: Successful nanoparticle formation and loading

COc1cc([C@@H]2c3cc4c(cc3[C@@H](O[C@@H]3O[C@@H]5CO[C@@H](C)O[C@H]5[C@H](O)[C@H]3O)[C@H]3COC(=O)[C@H]23)OCO4)cc(OC)c1O [etoposide]
higher reduction in viability, combination compared to single drug alone (NCI-H295R cells [8]): 44.6%
higher reduction in viability, combination compared to single drug alone (SW13 cells [9]): 39.52%
increase in the percentage of apoptotic cells (early and late) (NCI-H295R cells [1]): 36.46%
increase of necrotic cell death (SW13 cells [2]): 21.33%
reduction in mitochondrial potential ΔΨ (NCI-H295R cells [3]): 9.2%
reduction in mitochondrial potential ΔΨ (SW13 cells [4]): 31.54%
decrease of cortisol production levels ([5]; drug alone vs. controls): 82.1%
decrease of cortisol production levels ([5]; in combination with sHDL): not significantly different
HSD3B2 level [6]: 2.1 fold change
reduction in MCAs (NCI-H295R MCAs): approximately 50%
reduction in MCAs (SW13 MCAs): ~25%

Ac-PVLDEFREKLNEELEALKQKLK-NH2 [consensus 22-mer]
LCAT activation as compared with native ApoA-I (LCAT): 10%

CC[C@@]1(O)C(=O)OCc2c1cc1n(c2=O)Cc2cc3cc(O)ccc3nc2-1 [10-hydroxy camptothecin]
nanoparticle formation and loading in sHDL [7]: Successful nanoparticle formation and loading

pVLELFENLLERLLDALQKKLK ([dP]VLELFENLLERLLDALQKKLK) [SEQ ID NO:3, ApoA-I agonist peptide with D-Pro at X1]
LCAT activation as compared with native ApoA-I (LCAT): 111%

CC(=O)O[C@@]12CO[C@@H]1C[C@H](O)[C@@]1(C)C(=O)[C@H](O)C3=C(C)[C@@H](OC(=O)[C@H](O)[C@@H](NC(=O)OC(C)(C)C)c4ccccc4)C[C@@](O)([C@@H](OC(=O)c4ccccc4)[C@H]21)C3(C)C [docetaxel]
nanoparticle formation and loading in sHDL [7]: Successful nanoparticle formation and loading

Clc1ccc(C(c2ccccc2Cl)C(Cl)Cl)cc1 (stereo not shown) [mitotane]
IC50 value (SW13 and NCI-H295R cells; SW13 cells compared to NCI-H295R cells): higher IC50 value
higher reduction in viability, combination compared to single drug alone (NCI-H295R cells [8]): 39.1%
higher reduction in viability, combination compared to single drug alone (SW13 cells [9]): 22.3%
increase in the percentage of apoptotic cells (early and late) (NCI-H295R cells [1]): 36.01%
increase of apoptotic cell death (SW13 cells [2]): 11.9%
reduction in mitochondrial potential ΔΨ (NCI-H295R cells [3]): 14.49%
reduction in mitochondrial potential ΔΨ (SW13 cells [4]): 19.8%
decrease of cortisol production levels ([5]; drug alone vs. controls): 84.7%
decrease of cortisol production levels ([5]; in combination with sHDL): not significantly different
HSD3B2 level [6]: 0.2 fold change
reduction in MCAs (NCI-H295R MCAs): ~30%
reduction in MCAs (SW13 MCAs): approximately 50%
improvement in survival rate [10]: 14-50 months
initial response rates [10]: 20-30%

O=NN(CCCl)C(=O)NC1CCCCC1 [CCNU, lomustine]
nanoparticle formation and loading in sHDL [7]: Successful nanoparticle formation and loading

CC(=O)OCC1=C(C)C[C@H]([C@@H](C)C2CC[C@H]3[C@@H]4C[C@H]5O[C@]56[C@@H](OC(C)=O)C=CC(=O)[C@]6(COC(C)=O)[C@H]4CC[C@]23C)OC1=O (stereo partly shown) [WGA-TA, 4, 19, 27-triacetyl withalongolide A]
metabolic identification in plasma [11]: three deacetylation products

COc1cccc2c1C(=O)c1c(O)c3c(c(O)c1C2=O)C[C@@](O)(C(=O)CO)C[C@@H]3O[C@H]1C[C@H](N)[C@H](O)[C@H](C)O1 [doxorubicin]
combination index (CI) (SW13 and NCI-H295R cells; combined with sHDL nanoparticles (25 and 50 μg/ml), Chou-Talalay, 72 h): > 1
